Data from ChEMBL document CHEMBL3272046, “Adrenerigic agents. 7.1 Synthesis and beta-adrenergic agonist activity of several 2-pyridylethanolamines” (J Med Chem, 1977).

Tests used:
Assay type in all cases: tissue-based
Cavia porcellus [1] = species on record: Cavia porcellus; experiment: Agonist activity at beta-adrenergic receptor in guinea pig tracheal tissue assessed as bronchodilator activity; details: Trachea
Cavia porcellus [2] = species on record: Cavia porcellus; experiment: Agonist activity at beta-adrenergic receptor in guinea pig right atrial muscle assessed as rate of contraction of spontaneously beating atria; details: Cardiac atrium
Cavia porcellus [3] = species on record: Cavia porcellus; experiment: Intrinsic activity at beta-adrenergic receptor in guinea pig right atrial muscle assessed as rate of contraction of spontaneously beating atria relative to isoproterenol; details: Cardiac atrium
Cavia porcellus [4] = species on record: Cavia porcellus; experiment: Selectivity ratio of ED25 for beta-adrenergic receptor in guinea pig right atrial muscle to ED50 for beta-adrenergic receptor in guinea pig tracheal tissue; details: Cardiac atrium
Cavia porcellus [5] = species on record: Cavia porcellus; experiment: Agonist activity at beta-adrenergic receptor in guinea pig right atrial muscle assessed as rate of contraction of spontaneously beating atria at 1.7 x 10^-5 M; details: Cardiac atrium
Cavia porcellus [6] = species on record: Cavia porcellus; experiment: Agonist activity at beta-adrenergic receptor in guinea pig right atrial muscle assessed as rate of contraction of spontaneously beating atria at 9.9 x 10^-5 M; details: Cardiac atrium

| ED50 (Cavia porcellus [1]) | ED25 (Cavia porcellus [2]) | Intrinsic activity (Cavia porcellus [3]) | Selectivity ratio (Cavia porcellus [4]) | Activity (Cavia porcellus [5]) | Activity (Cavia porcellus [6]) | SMILES |
| --- | --- | --- | --- | --- | --- | --- |
| 7.1 ×10⁻⁹ M | 3.4 ×10⁻⁹ M | – | – | – | – | CC(C)NCC(O)c1ccc(O)c(O)c1 (stereo not given) |
| 1.1 ×10⁻⁸ M | 3.1 ×10⁻⁷ M | 0.7 | 28 | – | – | CC(C)(C)NCC(O)c1ccc(O)c(CO)c1 (stereo not given) |
| 2.8 ×10⁻⁷ M | 1 ×10⁻⁵ M | 0.4 | 36 | – | – | Cc1nc(C(O)CNC(C)(C)C)ccc1O (stereo not given) |
| 1.7 ×10⁻⁸ M | 2.8 ×10⁻⁵ M | 0.3 | 1650 | – | – | CC(C)(C)NCC(O)c1ccc(O)c(CS(C)(=O)=O)c1 (stereo not given) |
| 3.1 ×10⁻⁷ M | 1.7 ×10⁻⁵ M | – | > 182 | 7% | – | CC(C)(C)NCC(O)c1ccc(O)cn1 (stereo not given) |
| 2.8 ×10⁻⁹ M | 1.2 ×10⁻⁷ M | 0.8 | 43 | – | – | CC(C)(C)NCC(O)c1ccc(O)c(CO)n1 (stereo not given) |
| 2.9 ×10⁻⁸ M | 9.9 ×10⁻⁵ M | – | > 3410 | – | 13% | CC(C)(C)NCC(O)c1ccc(O)c(CS(C)(=O)=O)n1 (stereo not given) |

| SMILES | ED50 (Cavia porcellus [1]) | ED25 (Cavia porcellus [2]) | Intrinsic activity (Cavia porcellus [3]) | Selectivity ratio (Cavia porcellus [4]) | Activity (Cavia porcellus [5]) | Activity (Cavia porcellus [6]) |
| --- | --- | --- | --- | --- | --- | --- |
| CC(C)NCC(O)c1ccc(O)cc1 (stereo not given) | 1.1 ×10⁻⁷ M | 7.7 ×10⁻⁸ M | 0.8 | 0.7 | – | – |
